# Measurements published in patent publication US12065485B2, “Treatment of staphylococcal disorders” (priority 2013, dated 2024).
# Where a name gives a salt, the structure may show the parent alone. Read-outs that look alike come from different tables or passages of the source.
# Test system: P3 promoter (RNAIII / delta-toxin expression)
# Experiment: USA300-P3-Luc reporter screen for inhibition of RNAIII induction (P3 promoter activation by AIP)
# Type: cell-based, Staphylococcus aureus
# Details: for % Inhibition: relative to positive control (USA400 inhibitory AIP supernatant); for inhibition at 40 µM: Staphylococcus aureus
# Method: Staphylococcus aureus pulse-field gel electrophoresis (PFGE) type USA300 transformed with a plasmid containing the P3 promoter followed by the luciferase gene (USA300-P3-Luc) was grown in tryptic soy broth (TSB) to […] (5×10^8 CFU/mL), as determined by optical density at 600 nm, from overnight cultured bacteria and harvested via centrifugation (4,000×g, 4° C., 5 minutes). Supernatant was removed and the bacterial pellet was washed twice with an equal volume of PBS. Bacteria were suspended in PBS at 5×10^8 CFU/mL, as confirmed by plating serial dilutions onto TSB. 2×10^6 CFU washed USA300-P3-Luc was incubated with wt USA300 8-hour filtered supernatant containing stimulatory auto-inducing peptide (AIP) at a final dilution of 1:10 and 40 μM each compound in a total of 40 μL/well of TSB on a 384-well plate. The S. aureus two-component agr system induces delta-toxin expression via expression of AIP at stationary growth phase and was used to stimulate activation of the P3 promoter. Alternatively, AIP produced by a different S. aureus strain, PFGE type USA400, acts to inhibit delta-toxin expression in USA300. As a positive control, samples were incubated with USA400 8-hour filtered supernatant containing inhibitory AIP at a final dilution of 1:10 instead of test compound. Samples were incubated at 37° C. for 2 hours, then analyzed for luminescence and optical density at 600 nm. Percent Inhibition was determined by the following formula: Percent inhibition=100×(LumNo Inhibitor−Lumcompound)/(LumNo Inhibitor.−LumPositive control). Inhibitory compounds suitable for use in methods of inhibiting skin inflammation according to the disclosure were identified (Table 2) based on at least a 40% inhibition relative to the positive control, minimal reduction in growth as determined by optical density at 600 nm, and relatively low promiscuity (<10%) in relation to other high-throughput assays performed using these compounds.
# [1] = 40 μM compound, 2 hours at 37° C., luminescence
# [2] = 40 μM compound, 2 hours at 37° C., luminescence, relative to positive control (USA300 inhibitory AIP supernatant), read-out: % Inhibition
Compound,inhibition at 40 µM [2] [%],further results
Cc1ccc(S(=O)(=O)N[C@@H](Cc2ccccc2)C(=O)CCl)cc1 [TPCK],–,% Inhibition [1]: 87.8%
O=C(N/N=C/c1ccc([N+](=O)[O-])o1)c1cc([N+](=O)[O-])cc([N+](=O)[O-])c1O [NIFURSOL],63.9,–
NCCCNCCCCNC(=O)C(NC(=O)CCCCCN=C(N)N)c1ccc(Br)cc1 (stereo not shown) [4Br-AHX],–,% Inhibition [1]: 55.8%
"CO/N=C1\C[C@]2(C[C@@H]3C[C@@H](C/C=C(\C)C[C@@H](C)/C=C/C=C4\CO[C@@H]5[C@H](O)C(C)=C[C@@H](C(=O)O3)[C@]45O)O2)O[C@H](/C(C)=C/C(C)C)[C@H]1C [MOXIDECTIN | CYDECTIN, MOXIDECTIN]",58.9,–
"COc1ccc(CNC(=O)Nc2ncc([N+](=O)[O-])s2)cc1 [361549, GSK-3b Inhibitor VIII, GSK-3b Inhibitor VIII]",–,% Inhibition [1]: 73.7%
O=C(O)c1ccccc1Nc1cccc2c1C(=O)c1cccc(Nc3ccccc3C(=O)O)c1C2=O [NCI16221],–,% Inhibition [1]: 49.9%
"CCOc1cc(CC(=O)N[C@@H](CC(C)C)c2ccccc2N2CCCCC2)ccc1C(=O)O [CPD000466305_REPAGLINIDE, REPAGLINIDE]",49,–
"Cc1ccsc1C(=CCCN1CCC[C@@H](C(=O)O)C1)c1sccc1C [CPD000469176_TIAGABINE HCl, TIAGABINE HCl]",69.7,–
C[C@@H]1CC[C@@]2(OC1)O[C@H]1C[C@H]3[C@@H]4CC[C@@H]5C[C@@H](O)CC[C@]5(C)[C@H]4CC[C@]3(C)[C@H]1[C@@H]2C [SMILAGENIN],–,% Inhibition [1]: 75.3%
"Cc1ccc(Nc2c(F)cccc2Cl)c(CC(=O)O)c1 [LUMIRACOXIB | PREXIGE, LUMIRACOXIB]",60,–
"CCCc1c(OCCCCc2nnn[nH]2)ccc(C(C)=O)c1O [CPD000058555_LY 171883, LY 171883]",48.7,–
C#C[C@]1(O)CC[C@H]2[C@@H]3CCC4=CC(=O)CC[C@@H]4[C@H]3CC[C@@]21C [NORETHINDRONE],52.4,–
C=C1CC[C@H](O)C/C1=C/C=C1\CCC[C@]2(C)[C@@H]([C@H](C)/C=C/[C@H](C)C(C)C)CC[C@@H]12 [ERGOCALCIFEROL],51.9,–
O=C(O)c1ccccc1Nc1cccc(OCc2ccc3ccccc3n2)c1 [SR 2640],98.7,–
C[C@H](CCC(=O)O)[C@H]1CC[C@H]2[C@@H]3CC[C@@H]4CCCC[C@]4(C)[C@H]3CC[C@]12C [URSOCHOLANIC ACID],61.3,–
CC(=O)Oc1cccc2c1C(=O)c1c(OC(C)=O)cc(C(=O)O)cc1C2=O [DIACERIN],–,% Inhibition [1]: 76%
C=C1C[C@]23C[C@@]1(O)CC[C@H]2[C@@]12C=C[C@H](O)[C@@](C)(C(=O)O1)[C@H]2[C@@H]3C(=O)O [G[…]],–,"inhibition at 40 µM (USA300, 2 h): 60.5%"
"O=C(O)Cc1ccccc1Nc1c(Cl)cccc1Cl [Benzeneacetic acid, 2-[(2,6-dichlorophenyl)amino]-, monosodium salt]",65.1,–
c1ccc2c(c1)sc1ccccc12 [DIBENZOTHIOPHENE],50.7,–
O=C(O)c1cc2cc(Cl)ccc2[nH]1 [5-CHLOROINDOLE-2-CARBOXYLIC ACID],47.8,–
Oc1c2ccccc2c2c3c(cccc13)N=N2 [SP 600125],45.3,–
"Cc1c(Nc2ncccc2C(=O)O)cccc1C(F)(F)F [FLUNIXIN MEGLUMINE | BANAMINE, FLUNIXIN MEGLUMINE]",69.2,–
C/C=C(/C(=C/C)c1ccc(O)cc1)c1ccc(O)cc1 [DIENESTROL],90.8,–
"COc1ccnc(C[S+]([O-])c2nc3ccc(OC(F)F)cc3[nH]2)c1OC (stereo not shown) [PANTOPRAZOLE | PROTONIX, PANTOPRAZOLE]",52.8,–
COC(=O)CC[C@@H](C)[C@H]1CC[C@H]2[C@@H]3CC[C@@H]4C[C@H](O)CC[C@]4(C)[C@H]3C[C@H](O)[C@]12C [METHYL DEOXYCHOLATE],78.9,–
CC(=O)O[C@]1(C(C)=O)CC[C@H]2[C@@H]3C=C(C)C4=CC(=O)CC[C@]4(C)[C@H]3CC[C@@]21C [MEGESTROL ACETATE],46.5,–

Compound,inhibition at 40 µM [2] [%],further results
O=C1c2cccc(O)c2C(=O)c2c(O)cccc21 [DANTRON],76.1,–
O=c1c(O)c(-c2ccccc2)oc2cc(O)cc(O)c12 [Galangine],–,% Inhibition [1]: 79.5%
O=C(O)c1nn(Cc2ccc(Cl)cc2Cl)c2ccccc12 [Lonidamine],71.3,–
"CCCC[C@@H](CC)COC(=O)C(C#N)=C(c1ccccc1)c1ccccc1 [OCTOCRYLENE | EUSOLEX, OCTOCRYLENE]",–,% Inhibition [1]: 97.9%
CN1C[C@H](C(=O)N[C@]2(C)O[C@@]3(O)[C@@H]4CCCN4C(=O)[C@H](Cc4ccccc4)N3C2=O)C[C@@H]2c3cccc4[nH]cc(c34)C[C@H]21 [DIHYDROERGOTAMINE MESYLATE],52.2,–
CCC(=O)O[C@H]1CC[C@H]2[C@@H]3CCC4=CC(=O)CC[C@]4(C)[C@H]3CC[C@]12C [TESTOSTERONE PROPIONATE],65.7,–
O=C1C(Cl)=C(Cl)C(=O)C(Cl)=C1Cl [CHLORANIL],47.7,–
Cc1ccc(Cl)c(Nc2ccccc2C(=O)O)c1Cl [SODIUM MECLOFENAMATE],90.9,–
C#C[C@]1(O)CC[C@H]2[C@@H]3CCC4=Cc5oncc5C[C@]4(C)[C@H]3CC[C@@]21C [DANAZOL],47.4,–
Nc1ccc(/N=N/c2ccccc2)c(N)n1 [PHENAZOPYRIDINE HYDROCHLORIDE],75.5,–
Cc1cc(O)c2c(c1)C(=O)c1cccc(O)c1C2=O [CHRYSOPHANOL],47.2,–
"O=C(NC(=O)c1c(F)cccc1F)Nc1cc(Cl)c(OC(F)(F)C(F)C(F)(F)F)cc1Cl (stereo not shown) [LUFENURON | PROGRAM, LUFENURON]",55.8,–
Oc1nc(-c2ccc(C(F)(F)F)cc2)nc2c1CSCC2 [XAV939],53.4,–
"O=C(/C=C/c1ccc(O)cc1)c1ccccc1O [2′,4-DIHYDROXYCHALCONE]",71.9,–
Oc1cc2c(cc1O)C1c3ccc(O)c(O)c3OCC1(O)C2 (stereo not shown) [HAEMATOXYLIN],62.9,–
O=C1OC(c2ccc(O)cc2)(c2ccc(O)cc2)c2ccccc21 [PHENOLPHTHALEIN],72.4,–
COc1ccc(-c2c(O)c3c(OC)c4c(cc3oc2=O)OC(C)(C)C=C4)cc1 [ROBUSTIC ACID],96.9,–
Cc1cc(CC(=O)O)n(C)c1C(=O)c1ccc(Cl)cc1 [ZOMEPIRAC SODIUM],64.8,–
"CC(C)c1nc(CN(C)C(=O)N[C@H](C(=O)N[C@@H](Cc2ccccc2)C[C@H](O)[C@H](Cc2ccccc2)NC(=O)OCc2cncs2)C(C)C)cs1 [CPD000466395_RITONAVIR, RITONAVIR]",85.7,–
"O=C(c1ccc(F)cc1)C1CCN(CCn2c(=S)[nH]c3ccccc3c2=O)CC1 [CPD000466283_Altanserin, Altanserin]",59,–
NCCOB(c1ccccc1)c1ccccc1 [AMINOETHOXYDIPHENYLBORANE],82.1,–
CC[C@H](c1ccc(O)cc1)[C@@H](CC)c1ccc(O)cc1 [HEXESTROL],99.9,–
CSc1ccc(/C=C2/C(C)=C(CC(=O)O)c3cc(F)ccc32)cc1 [Sulindac Sulfide],72.4,–
CC(C)c1cc2c(c(O)c1O)[C@@]1(C(=O)O)CCCC(C)(C)[C@@H]1CC2 [CARNOSIC ACID],95.8,–
COC(=O)[C@H](c1ccccc1Cl)N1CCc2sccc2C1 [CLOPIDOGREL SULFATE],69.4,–
"COc1cc(C)c(Cc2cnc(N)nc2N)cc1OC [CPD000466374_ORMETOPRIM, ORMETOPRIM]",53.2,–
